Reference: the NIST ThermoML archive (doi:10.1007/s10765-006-0092-8)

Settings: gamma-ray densimeter

Fc1c(F)c(F)c(F)c(F)c1F [hexafluorobenzene]
mass density [kg/m3]
Settings	Gas	Liquid
298.79 K	–	1605.4
323.83 K	2.3	1548.5
343.88 K	–	1499.4
363.85 K	–	1450.5
383.91 K	15.5	1397.9
403.92 K	25.8	1342.1
423.93 K	40.6	1281.2
443.9 K	62.7	1213.9
463.89 K	95.3	1135.3
483.9 K	146.7	1037.1
493.93 K	186	974
503.88 K	243.5	892.3
508.9 K	287	835.8
513.91 K	363.5	744.6
513.92 K	363.5	746.3
515.98 K	433.7	670.3
516.28 K	455.8	644.8
516.57 K	491.5	610.1
